Experimental data as given in patent US10987322B2, “Immunoregulatory agents” (FLEXUS BIOSCIENCES, INC., priority 2014, dated 2021).

Molecular target: IDO (Homo sapiens, UniProt P14902)
Experiment: IDO enzyme activity assay
Type: biochemical
Details: read-out: Potency: IDO IC50
Procedure: An IDO enzyme assay and cellular production of kynurenine (KYN) is described in Sarkar, S. A. et al., Diabetes 56:72-79 (2007). Briefly, all chemicals can be purchased from Sigma-Aldrich (St. Louis, Mo.) unless specified otherwise. Groups of 1,000 human islets can be cultured for 24 h in 1 mL medium with cytokines, recovered by centrifugation for 5 min at 800×g and sonicated in 150 μL PBS containing a protease inhibitor cocktail (Set 2; Calbiochem, EMD Biosciences, San Diego, Calif.). The sonicate can be centrifuged for 10 min at 10,000×g, and the supernatant can be assayed in triplicate by incubating a 40 μl sample with an equal volume of 100 mmol/L potassium phosphate buffer, pH 6.5, containing 40 mmol/L ascorbic acid (neutralized to pH 7.0), 100 μmol/L methylene blue, 200 μg/mL catalase, and 400 μmol/l L-Trp for 30 min at 37° C. The assay can be terminated by the addition of 16 μL 30% (w/v) trichloroacetic acid (TCA) and further incubated at 60° C. for 15 min to hydrolyze N-formylkynurenine to KYN. The mixture can then be centrifuged at 12,000 rpm for 15 min, and KYN can be quantified by mixing equal volume of supernatant with 2% (w/v) Ehrlich's reagent in glacial acetic acid in 96-well microtiter plate and reading the absorbance at 480 nm using L-KYN as standard. Protein in the islet samples can be quantified by Bio-Rad Protein assay at 595 nm. For the detection of L-KYN in the islet culture supernatants, proteins can be precipitated with 5% (w/v) TCA and centrifuged at 12,000 rpm for 15 min, and determination of KYN in the supernatant with Ehrlich's reagent can be determined as described above. IL-4 ([…]; 500-2,000 units/mL) and 1-α-methyl Trp (1-MT; 40 μmol/L) can be added to the incubation media as indicated. This assay can also form the basis of a cell-based assay, and may be quantified via LCMS/MS as an alternative to UV/Vis detection.
cDNA clones for both human and mouse IDO have been isolated and verified by sequencing and are commercially available. In order to prepare IDO for biochemical studies, C-terminal His-tagged IDO protein can be produced in E. coli using the IPTG-inducible pET5a vector system and isolated over a nickel column. The yield of the partially purified protein can be verified by gel electrophoresis and the concentration estimated by comparison to protein standards. To assay IDO enzymatic activity, a 96-well plate spectraphotometric assay for kynurenine production can be run following published procedures (see, e.g., Littlejohn, T. K., et al. (2000) Prot. Exp. Purif. 19:22-29). To screen for IDO inhibitory activity, compounds can be evaluated at a single concentration of, for example, 200 μM against 50 ng of IDO enzyme in 100 μL reaction volumes with tryptophan added at increasing concentrations at, for example, 0, 2, 20, and 200 μM. Kynurenine production can be measured at 1 hour.

IDO, sequence (P14902 whole entry): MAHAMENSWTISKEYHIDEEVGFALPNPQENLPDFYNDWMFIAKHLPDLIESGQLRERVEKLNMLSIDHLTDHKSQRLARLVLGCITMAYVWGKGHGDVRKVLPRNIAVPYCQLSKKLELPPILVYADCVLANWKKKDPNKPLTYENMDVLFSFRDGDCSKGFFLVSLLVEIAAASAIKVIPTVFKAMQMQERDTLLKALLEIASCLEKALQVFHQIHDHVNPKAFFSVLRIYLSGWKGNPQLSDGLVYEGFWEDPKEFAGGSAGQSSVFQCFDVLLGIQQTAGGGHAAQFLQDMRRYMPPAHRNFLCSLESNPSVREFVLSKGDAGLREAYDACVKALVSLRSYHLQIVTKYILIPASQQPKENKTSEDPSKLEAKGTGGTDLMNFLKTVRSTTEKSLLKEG

| IC50 [µM] | SMILES |
| --- | --- |
| < 100 | O/N=C(/CC(O)C1CCCCC1)Nc1cccc(F)c1 (stereo not drawn) |
| < 1 | CCC/C(=N/O)Nc1cccc(Cl)c1 |
| < 1 | O/N=C(/CC1CCCC1)Nc1cccc(Cl)c1 |
| < 1 | CC(C)C/C(=N/O)Nc1cccc(Cl)c1 |
| < 10 | OCCCC/C(=N/O)Nc1cccc(Cl)c1 |
| < 10 | CC/C(=N/O)Nc1cccc(Cl)c1 |
| < 1 | CCCCCC/C(=N/O)Nc1cccc(Cl)c1 |
| < 10 | O/N=C(\Nc1cccc(Cl)c1)C1CCCC1 |
| < 10 | O/N=C(/CC1CCCC1O)Nc1cccc(Cl)c1 (stereo not drawn) |
| < 100 | O/N=C(/CC(O)C1CCCCC1)Nc1ccc(Cl)c(F)c1 (stereo not drawn) |
| < 1 | O/N=C(/CC1CC1)Nc1cccc(Cl)c1 |
| < 10 | O/N=C(/CC(O)C1CCCCC1)Nc1cccc(Cl)c1 (stereo not drawn) |
| < 100 | O/N=C(/CC(O)C1CCCCC1)Nc1cccc(C(F)(F)F)c1 (stereo not drawn) |
| < 1 | CC(C)CC/C(=N/O)Nc1cccc(Cl)c1 |
| < 10 | O/N=C(/CC1CCCO1)Nc1cccc(Cl)c1 (stereo not drawn) |
| < 1 | O/N=C(/CCC1CCCCC1)Nc1cccc(Cl)c1 |
| < 10 | O/N=C(/CC(O)C1CCCCC1)Nc1cc(Cl)cc(Cl)c1 (stereo not drawn) |
| < 1 | O/N=C(/CCC1CCCC1)Nc1cccc(Cl)c1 |
| < 100 | CC(C)(C)C/C(=N/O)Nc1cccc(Cl)c1 |
| < 1 | O/N=C(/CC1CCCCC1)Nc1cccc(Cl)c1 |
| < 100 | O/N=C(/CC(O)C1CCCCC1)Nc1ccc(F)c(F)c1 (stereo not drawn) |
| < 1 | CCCCC/C(=N/O)Nc1cccc(Cl)c1 |
| < 1 | CCCC/C(=N/O)Nc1cccc(Cl)c1 |
| < 100 | O/N=C(/CC(O)C1CCCCC1)Nc1cc(F)cc(Cl)c1 (stereo not drawn) |
